Experimental data as given in patent US20250313572A1, “MACROCYCLIC MCL-1 INHIBITORS AND METHODS OF USE” (AbbVie Inc., priority 2017, published 2025).
pKi: −log10 of the molar value. Read-outs that look alike come from different tables or passages of the source.

Key:
GST-MCL-1 = GST-MCL-1 (Homo sapiens, UniProt Q07820); experiment: TR-FRET MCL-1 binding assay (competition with probe F-Bak); conditions: for Ki: MCL-1 Binding Ki (nM, 10% HS), in the presence of 10% HS (human serum); for pKi: without HS, read-out: MCL-1 Binding Ki
How it was run: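 Displacement of F-Bak from GST-MCL-1 is detected by time-resolved FRET with a Tb-labelled anti-GST antibody, with excitation 340/35 nm and emission 520/525 and 495/510 nm, after 2 hours at room temperature. Compounds were titrated in 11 three-fold steps starting at 25 μM final, in buffer alone or in 10% HS.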

[1] = tested on: AMO-1 human multiple myeloma tumor cell line; experiment: AMO-1 cell viability assay (CellTiter-Glo, 24 hours); assay type: cell-based; conditions: Homo sapiens, AMO1, 24 h, read-out: AMO-1 Viability IC50 (μM, 10% FBS), 10% FBS, 24 hours of compound treatment
[2] = tested on: NCI-H929 human multiple myeloma tumor cell line; experiment: NCI-H929 cell viability assay (CellTiter-Glo, 24 hours); assay type: cell-based; conditions: Homo sapiens, NCI-H929, 24 h, read-out: H929 Viability IC50 (μM, 10% FBS), 10% FBS, 24 hours of compound treatment

Chain of GST-MCL-1 (Q07820 whole entry): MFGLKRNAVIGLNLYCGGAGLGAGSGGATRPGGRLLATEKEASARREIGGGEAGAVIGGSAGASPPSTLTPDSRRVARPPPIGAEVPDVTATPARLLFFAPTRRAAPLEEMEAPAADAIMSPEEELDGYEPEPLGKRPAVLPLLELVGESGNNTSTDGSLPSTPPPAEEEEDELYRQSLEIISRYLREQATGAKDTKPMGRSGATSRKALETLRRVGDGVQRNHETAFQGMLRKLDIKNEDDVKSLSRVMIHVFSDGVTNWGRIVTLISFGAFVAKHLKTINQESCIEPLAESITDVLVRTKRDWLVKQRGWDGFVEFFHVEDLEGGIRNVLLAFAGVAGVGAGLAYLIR

For `Cc1c(Cl)c2c(Cl)c(C)c1-c1c(-c3ccc(F)cc3)sc3ncnc(c13)O[C@@H](C(=O)O)Cc1cc(ccc1OCc1ccnc(N3C[C@@H]4[C@H](C3)[C@H]4C(=O)O)n1)OC[C@@H](CN1CCN(C)CC1)O2` [Example 36, (7R,16R)-10-({2-[(1R,5S,6r)-6-carboxy-3-azabicyclo[3,1,0]hexan-3-yl]pyrimidin-4-yl}methoxy)-19,23-dichloro-1-(4-fluorophenyl)-20,22-dimethyl-16-[(4-methylpiperazin-1-yl)methyl]-7,8,15,16-tetrahydro-18,21-etheno-13,9-(metheno)-6,14,17-trioxa-2-thia-3,5-diazacyclononadeca[1,2,3-cd]indene-7-carboxylic Acid], the Ki (GST-MCL-1) was 1.16 nM, the pKi (GST-MCL-1) was 9.84 and the IC50 [1] was 0.32 µM. It also gave an IC50 [2] of 0.653 µM.
`Cc1c(Cl)c2c(Cl)c(C)c1-c1c(-c3ccc(F)cc3)sc3ncnc(c13)O[C@@H](C(=O)O)Cc1cc(ccc1OCc1ccnc([C@@]3(O)CCCC[C@@H]3O)n1)OC[C@@H](CN1CCN(C)CC1)O2` [Example 38, (7R,16R)-19,23-dichloro-10-({2-[(1S,2S)-1,2-dihydroxycyclohexyl]pyrimidin-4-yl}methoxy)-1-(4-fluorophenyl)-20,22-dimethyl-16-[(4-methylpiperazin-1-yl)methyl]-7,8,15,16-tetrahydro-18,21-etheno-9,13-(metheno)-6,14,17-trioxa-2-thia-3,5-diazacyclononadeca[1,2,3-cd]indene-7-carboxylic Acid] gave a Ki (GST-MCL-1) of 0.416 nM, a pKi (GST-MCL-1) of 9.97 and an IC50 [1] of 0.00236 µM. The IC50 [2] was 0.00577 µM.
`Cc1c(Cl)c2c(Cl)c(C)c1-c1c(-c3ccc(F)cc3)sc3ncnc(c13)O[C@@H](C(=O)O)Cc1cc(ccc1OCc1ccnc([C@]3(O)CCCC[C@H]3O)n1)OC[C@@H](CN1CCN(C)CC1)O2` [Example 39, (7R,16R)-19,23-dichloro-10-({2-[(1R,2R)-1,2-dihydroxycyclohexyl]pyrimidin-4-yl}methoxy)-1-(4-fluorophenyl)-20,22-dimethyl-16-[(4-methylpiperazin-1-yl)methyl]-7,8,15,16-tetrahydro-18,21-etheno-9,13-(metheno)-6,14,17-trioxa-2-thia-3,5-diazacyclononadeca[1,2,3-cd]indene-7-carboxylic Acid] gave a Ki (GST-MCL-1) of 0.193 nM, a pKi (GST-MCL-1) of 10.38 and an IC50 [1] of 0.00119 µM. The IC50 [2] was 0.00353 µM.
With `Cc1c(Cl)c2c(Cl)c(C)c1-c1c(-c3ccc(F)cc3)sc3ncnc(c13)O[C@@H](C(=O)O)Cc1cc(ccc1OCc1ccnc(C3CCS(=O)(=O)CC3)n1)OC[C@@H](CN1CCN(C)CC1)O2` [Example 40, (7R,16R)-19,23-dichloro-10-{[2-(1,1-dioxo-1λ^6-thian-4-yl)pyrimidin-4-yl]methoxy}-1-(4-fluorophenyl)-20,22-dimethyl-16-[(4-methylpiperazin-1-yl)methyl]-7,8,15,16-tetrahydro-18,21-etheno-13,9-(metheno)-6,14,17-trioxa-2-thia-3,5-diazacyclononadeca[1,2,3-cd]indene-7-carboxylic Acid] the Ki (GST-MCL-1) was 0.085 nM, the pKi (GST-MCL-1) was 10.74 and the IC50 [1] was 0.003 µM. For the same compound, the IC50 [2] was 0.00474 µM.
With `Cc1c(Cl)c2c(Cl)c(C)c1-c1c(-c3ccc(F)cc3)sc3ncnc(c13)O[C@@H](C(=O)O)Cc1cc(ccc1OCc1ccnc(N3CCC(C)(CC(=O)O)CC3)n1)OC[C@@H](CN1CCN(C)CC1)O2` [Example 41, (7R,16R)-10-({2-[4-(carboxymethyl)-4-methylpiperidin-1-yl]pyrimidin-4-yl}methoxy)-19,23-dichloro-1-(4-fluorophenyl)-20,22-dimethyl-16-[(4-methylpiperazin-1-yl)methyl]-7,8,15,16-tetrahydro-18,21-etheno-13,9-(metheno)-6,14,17-trioxa-2-thia-3,5-diazacyclononadeca[1,2,3-cd]indene-7-carboxylic Acid] the Ki (GST-MCL-1) was 1.05 nM, the pKi (GST-MCL-1) was 10.11 and the IC50 [1] was 0.0159 µM. It also gave an IC50 [2] of 0.019 µM.
`Cc1c(Cl)c2c(Cl)c(C)c1-c1c(-c3ccc(F)cc3)sc3ncnc(c13)O[C@@H](C(=O)O)Cc1cc(ccc1OCc1ccnc(N3CC4(COC4)C3)n1)OC[C@@H](CN1CCN(C)CC1)O2` [Example 42, (7R,16R)-19,23-dichloro-1-(4-fluorophenyl)-20,22-dimethyl-16-[(4-methylpiperazin-1-yl)methyl]-10-{[2-(2-oxa-6-azaspiro[3.3]heptan-6-yl)pyrimidin-4-yl]methoxy}-7,8,15,16-tetrahydro-18,21-etheno-9,13-(metheno)-6,14,17-trioxa-2-thia-3,5-diazacyclononadeca[1,2,3-cd]indene-7-carboxylic Acid] showed a Ki (GST-MCL-1) of 0.747 nM, a pKi (GST-MCL-1) of 10.07 and an IC50 [1] of 0.0011 µM. The IC50 [2] was 0.00314 µM.
With `COCCOCCOCCOCCOCCOCCOCCC(=O)N1CCC[C@@H]1c1nccc(COc2ccc3cc2C[C@H](C(=O)O)Oc2ncnc4sc(-c5ccc(F)cc5)c(c24)-c2ccc(c(Cl)c2C)O[C@H](CN2CCN(C)CC2)CO3)n1` [Example 43, (7R,16R)-19-chloro-1-(4-fluorophenyl)-20-methyl-16-[(4-methylpiperazin-1-yl)methyl]-10-({2-[(2R)-1-(23-oxo-2,5,8,11,14,17,20-heptaoxatricosan-23-yl)pyrrolidin-2-yl]pyrimidin-4-yl}methoxy)-7,8,15,16-tetrahydro-18,21-etheno-13,9-(metheno)-6,14,17-trioxa-2-thia-3,5-diazacyclononadeca[1,2,3-cd]indene-7-carboxylic Acid] the Ki (GST-MCL-1) was 39.4 nM, the pKi (GST-MCL-1) was 7.39 and the IC50 [1] was > 1 µM. For the same compound, the IC50 [2] was > 1 µM.
Work on `COCCOCCOCCOCCOCCOCCOCCOCCOCCOCCOCCOCCOCC1(c2nccc(COc3ccc4cc3C[C@H](C(=O)O)Oc3ncnc5sc(-c6ccc(F)cc6)c(c35)-c3c(C)c(Cl)c(c(Cl)c3C)O[C@H](CN3CCN(C)CC3)CO4)n2)CCC1` [Example 44, (7R,16R)-19,23-dichloro-1-(4-fluorophenyl)-20,22-dimethyl-16-[(4-methylpiperazin-1-yl)methyl]-10-({2-[1-(2,5,8,11,14,17,20,23,26,29,32,35,38-tridecaoxanonatriacontan-1-yl)cyclobutyl]pyrimidin-4-yl}methoxy)-7,8,15,16-tetrahydro-18,21-etheno-13,9-(metheno)-6,14,17-trioxa-2-thia-3,5-diazacyclononadeca[1,2,3-cd]indene-7-carboxylic Acid] yielded a Ki (GST-MCL-1) of 0.224 nM, a pKi (GST-MCL-1) of 9.91 and an IC50 [1] of 0.0211 µM. For the same compound, the IC50 [2] was 0.0179 µM.
With `COCCOCCOCCOCC1(c2nccc(COc3ccc4cc3C[C@H](C(=O)O)Oc3ncnc5sc(-c6ccc(F)cc6)c(c35)-c3c(C)c(Cl)c(c(Cl)c3C)O[C@H](CN3CCN(C)CC3)CO4)n2)CCC1` [Example 45, (7R,16R)-19,23-dichloro-1-(4-fluorophenyl)-20,22-dimethyl-16-[(4-methylpiperazin-1-yl)methyl]-10-({2-[1-(2,5,8,11-tetraoxadodecan-1-yl)cyclobutyl]pyrimidin-4-yl}methoxy)-7,8,15,16-tetrahydro-18,21-etheno-13,9-(metheno)-6,14,17-trioxa-2-thia-3,5-diazacyclononadeca[1,2,3-cd]indene-7-carboxylic Acid] the Ki (GST-MCL-1) was 0.343 nM, the pKi (GST-MCL-1) was 10.03 and the IC50 [1] was 0.000461 µM. For the same compound, the IC50 [2] was 0.000598 µM.
Work on `COCCOCCOCCOc1ccc(-c2nccc(COc3ccc4cc3C[C@H](C(=O)O)Oc3ncnc5sc(-c6ccc(F)cc6)c(c35)-c3c(C)c(Cl)c(c(Cl)c3C)O[C@H](CN3CCN(C)CC3)CO4)n2)cn1` [Example 46, (7R,16R)-19,23-dichloro-1-(4-fluorophenyl)-10-{[2-(6-{2-[2-(2-methoxyethoxy)ethoxy]ethoxy}pyridin-3-yl)pyrimidin-4-yl]methoxy}-20,22-dimethyl-16-[(4-methylpiperazin-1-yl)methyl]-7,8,15,16-tetrahydro-18,21-etheno-13,9-(metheno)-6,14,17-trioxa-2-thia-3,5-diazacyclononadeca[1,2,3-cd]indene-7-carboxylic Acid] yielded a Ki (GST-MCL-1) of 1.08 nM, a pKi (GST-MCL-1) of 8.99 and an IC50 [1] of 0.00027 µM. It also gave an IC50 [2] of 0.000388 µM.
Work on `COCCOCCOCCOCCOCCOCCOCCOCCOCCOCCOCCNC(=O)c1ccc(-c2nccc(COc3ccc4cc3C[C@H](C(=O)O)Oc3ncnc5sc(-c6ccc(F)cc6)c(c35)-c3c(C)c(Cl)c(c(Cl)c3C)O[C@H](CN3CCN(C)CC3)CO4)n2)cc1` [Example 47, (7R,16R)-19,23-dichloro-1-(4-fluorophenyl)-20,22-dimethyl-16-[(4-methylpiperazin-1-yl)methyl]-10-[(2-{4-[(2,5,8,11,14,17,20,23,26,29,32-undecaoxatetratriacontan-34-yl)carbamoyl]phenyl}pyrimidin-4-yl)methoxy]-7,8,15,6-tetrahydro-18,21-etheno-13,9-(metheno)-6,14,17-trioxa-2-thia-3,5-diazacyclononadeca[1,2,3-cd]indene-7-carboxylic Acid] yielded a Ki (GST-MCL-1) of 3.12 nM, a pKi (GST-MCL-1) of 10.74 and an IC50 [1] of 0.0182 µM. For the same compound, the IC50 [2] was 0.0205 µM.
With `Cc1c(Cl)c2c(Cl)c(C)c1-c1c(-c3ccc(F)cc3)sc3ncnc(c13)O[C@@H](C(=O)O)Cc1cc(ccc1OCc1ccnc(N3CC4(C3)CC(F)(F)C4)n1)OC[C@@H](CN1CCN(C)CC1)O2` [Example 48, (7R,16R)-19,23-dichloro-10-{[2-(6,6-difluoro-2-azaspiro[3.3]heptan-2-yl)pyrimidin-4-yl]methoxy}-1-(4-fluorophenyl)-20,22-dimethyl-16-[(4-methylpiperazin-1-yl)methyl]-7,8,15,16-tetrahydro-18,21-etheno-9,13-(metheno)-6,14,17-trioxa-2-thia-3,5-diazacyclononadeca[1,2,3-cd]indene-7-carboxylic Acid] the Ki (GST-MCL-1) was 5.32 nM, the pKi (GST-MCL-1) was 9.19 and the IC50 [1] was 0.00275 µM. It also gave an IC50 [2] of 0.00798 µM.
